# System: aortal, smooth vascular muscle cells
# Assay: inhibition of the growth of aortal, smooth vascular muscle cells
# Format: cell-based, human
# Details: pharmacologically active even in the smallest concentrations of active substance
# Description: This effect already occurs starting at 1 to 100 nM, preferably 5 to 50 nM, so that already extremely low local concentrations are sufficient for an effective inhibition of restenosis in the region of an implant. This virtually precludes broader side-effects.
smiles,measurement,value
C/C=C/[C@@H]1O[C@H]([C@H](O)/C=C/C=C(\C)C[C@@H](C)/C=C(C)\C=C\[C@H]2CC=CC(=O)O2)C[C@@H](O)[C@@H]1C [Ratjadone],potency in first experiments,particularly potent

# — US20070020306A1, “Endovascular implant with an at least sectional active coating made of radjadone and/or a ratjadone derivative” (priority 2003, published 2007)
